Columns and labels:
H460 cells = assay: Apoptosis by Annexin V FITC flow cytometry, H460; type: cell-based, human; conditions: 10 μM for 3 days
Procedure: (§1) Compound 1 and other compounds of Tables 1A and 1B were similarly tested for apoptotic effects to represent the inhibitory effects of compounds on interaction between the PDZ domain of the Dishevelled (Dvl) protein and the Fz protein (Wnt receptor). Cell lines H460 and LOX were utilized, with the test compound being applied at 10 μM for 3 days. Cultured cells treated with the test compounds in the culture media were harvested by trypsinization and stained using an Annexin V FITC Apoptosis Detection kit (Oncogene Science, Cambridge, Mass.), according to the manufacturer's protocol. Stained cells were immediately analyzed by flow cytometry (FACScan; Becton-Dickinson, Franklin Lake, N.J.).

LOX cells = assay: Apoptosis by Annexin V FITC flow cytometry, LOX; type: cell-based, human; conditions: 10 μM for 3 days
Procedure: as §1

[1] = Assay 1, library 1, control 9.22
[2] = Assay 1, library 1, control 10.85
[3] = Assay 2, library 2, control 10.24
[4] = Assay 2, library 2, control 9.67
[5] = Assay 3, library 3, control 7.59
[6] = Assay 3, library 3, control 8.81

SMILES	apoptosis, % H460 (H460 cells; [1]) [%]	apoptosis, % LOX (LOX cells; [2]) [%]	apoptosis, % H460 (H460 cells; [3]) [%]	apoptosis, % LOX (LOX cells; [4]) [%]	apoptosis, % H460 (H460 cells; [5]) [%]	apoptosis, % LOX (LOX cells; [6]) [%]
Cc1cc2[nH]c(C(O)CC(C)C)c(CCc3ccccc3)c2cc1C(=O)O (centres unmarked) [Compound 2]	34.21	36.32	–	–	–	–
CCC(C)C(O)c1[nH]c2cc(C)c(C(=O)O)cc2c1CCc1ccccc1 (centres unmarked) [Compound 3]	79.9	56.29	–	–	–	–
Cc1cc2[nH]c(C(O)CC3CCCC3)c(CCc3ccccc3)c2cc1C(=O)O (centres unmarked) [Compound 4]	36.41	32.52	–	–	–	–
Cc1cc2[nH]c(C(O)C3CCCCC3)c(CCc3ccccc3)c2cc1C(=O)O (centres unmarked) [Compound 5]	24.39	27.15	–	–	–	–
Cc1cc2[nH]c(C(O)CCCC(=O)O)c(CCc3ccccc3)c2cc1C(=O)O (centres unmarked) [Compound 6]	8.62	9.22	–	–	–	–
CCCCC(=O)c1[nH]c2cc(C)c(C(=O)OC)cc2c1CCc1ccccc1 [Compound 7]	13.92	17.96	–	–	–	–
CCCCCc1c(C(O)CCCC)[nH]c2cc(C)c(C(=O)O)cc12 (centres unmarked) [Compound 10]	–	–	39.64	19.08	–	–
CCCCC(O)c1[nH]c2cc(C)c(C(=O)O)cc2c1CC(C)C (centres unmarked) [Compound 11]	–	–	24.48	14.83	–	–
CCCCC(O)c1[nH]c2cc(C)c(C(=O)O)cc2c1C1CCCCC1 (centres unmarked) [Compound 12]	–	–	28.8	15.83	–	–
CCCCC(O)c1[nH]c2cc(C)c(C(=O)O)cc2c1-c1ccccc1 (centres unmarked) [Compound 13]	–	–	35.51	17.84	–	–
CCCCC(O)c1[nH]c2cc(C)c(C(=O)O)cc2c1Cc1ccccc1 (centres unmarked) [Compound 14]	–	–	24.26	11.88	–	–
CCCCC(O)c1[nH]c2cc(C)c(C(=O)O)cc2c1CCCc1ccccc1 (centres unmarked) [Compound 15]	–	–	37.4	17.57	–	–
CCCCC(O)c1[nH]c2cc(C)c(C(=O)O)cc2c1CCCO (centres unmarked) [Compound 16]	–	–	15.7	14.5	–	–
CCCCC(O)c1[nH]c2cc(C)c(C(=O)O)cc2c1CCCC(=O)O (centres unmarked) [Compound 17]	–	–	18.93	15.62	–	–
Cc1cc2[nH]c(C(O)CC(C)C)c(-c3ccccc3)c2cc1C(=O)O (centres unmarked) [Compound 18]	–	–	–	–	21.11	9.53
CCC(C)C(O)c1[nH]c2cc(C)c(C(=O)O)cc2c1-c1ccccc1 (centres unmarked) [Compound 19]	–	–	–	–	44.15	47.62
Cc1cc2[nH]c(C(O)C(C)C)c(-c3ccccc3)c2cc1C(=O)O (centres unmarked) [Compound 20]	–	–	–	–	28.9	11.77
Cc1cc2[nH]c(C(O)CC3CCCC3)c(-c3ccccc3)c2cc1C(=O)O (centres unmarked) [Compound 21]	–	–	–	–	31.22	19.99
Cc1cc2[nH]c(C(O)C3CCCCC3)c(-c3ccccc3)c2cc1C(=O)O (centres unmarked) [Compound 22]	–	–	–	–	16.22	15.47
Cc1cc2[nH]c(C(O)CC(C)(C)C)c(-c3ccccc3)c2cc1C(=O)O (centres unmarked) [Compound 23]	–	–	–	–	12.09	11.34
Cc1cc2[nH]c(C(O)CCc3ccccc3)c(-c3ccccc3)c2cc1C(=O)O (centres unmarked) [Compound 24]	–	–	–	–	26.58	26.56
CCCCC(=O)c1[nH]c2cc(C)c(C(=O)O)cc2c1CCc1ccccc1 [Compound 26]	16.13	16.86	–	–	–	–
Cc1cc2[nH]c(C(=O)CC(C)C)c(CCc3ccccc3)c2cc1C(=O)O [Compound 27]	16.91	18.5	–	–	–	–

SMILES	apoptosis, % H460 (H460 cells; [1]) [%]	apoptosis, % LOX (LOX cells; [2]) [%]	apoptosis, % H460 (H460 cells; [3]) [%]	apoptosis, % LOX (LOX cells; [4]) [%]	apoptosis, % H460 (H460 cells; [5]) [%]	apoptosis, % LOX (LOX cells; [6]) [%]
CCC(C)C(=O)c1[nH]c2cc(C)c(C(=O)O)cc2c1CCc1ccccc1 (centres unmarked) [Compound 28]	58.76	38.53	–	–	–	–
Cc1cc2[nH]c(C(=O)CC3CCCC3)c(CCc3ccccc3)c2cc1C(=O)O [Compound 29]	64.1	74.11	–	–	–	–
Cc1cc2[nH]c(C(=O)C3CCCCC3)c(CCc3ccccc3)c2cc1C(=O)O [Compound 30]	78.07	55.76	–	–	–	–
Cc1cc2[nH]c(C(=O)CCCC(=O)O)c(CCc3ccccc3)c2cc1C(=O)O [Compound 31]	9.07	12.06	–	–	–	–
Cc1cc2[nH]c(C(=O)c3ccccc3)c(CCc3ccccc3)c2cc1C(=O)O [Compound 32]	21.13	15.36	–	–	–	–
Cc1cc2[nH]c(C(=O)Cc3ccccc3)c(CCc3ccccc3)c2cc1C(=O)O [Compound 33]	12.66	15.03	–	–	–	–
Cc1cc2[nH]c(C(=O)CCc3ccccc3)c(CCc3ccccc3)c2cc1C(=O)O [Compound 34]	76.59	44.73	–	–	–	–
CCCCCc1c(C(=O)CCCC)[nH]c2cc(C)c(C(=O)O)cc12 [Compound 35]	–	–	34.73	23.23	–	–
CCCCC(=O)c1[nH]c2cc(C)c(C(=O)O)cc2c1CC(C)C [Compound 36]	–	–	41.48	13.51	–	–
CCCCC(=O)c1[nH]c2cc(C)c(C(=O)O)cc2c1C1CCCCC1 [Compound 37]	–	–	45.05	7.49	–	–
CCCCC(=O)c1[nH]c2cc(C)c(C(=O)O)cc2c1-c1ccccc1 [Compound 38]	–	–	51.61	13.58	–	–
CCCCC(=O)c1[nH]c2cc(C)c(C(=O)O)cc2c1Cc1ccccc1 [Compound 39]	–	–	42.9	29.35	–	–
CCCCC(=O)c1[nH]c2cc(C)c(C(=O)O)cc2c1CCCc1ccccc1 [Compound 40]	–	–	23.93	16.5	–	–
CCCCC(=O)c1[nH]c2cc(C)c(C(=O)O)cc2c1CCCO [Compound 41]	–	–	19.96	12.69	–	–
CCCCC(=O)c1[nH]c2cc(C)c(C(=O)O)cc2c1CCCC(=O)O [Compound 42]	–	–	49.41	15.22	–	–
Cc1cc2[nH]c(C(=O)CC(C)C)c(-c3ccccc3)c2cc1C(=O)O [Compound 43]	–	–	–	–	34.22	20.24
CCC(C)C(=O)c1[nH]c2cc(C)c(C(=O)O)cc2c1-c1ccccc1 (centres unmarked) [Compound 44]	–	–	–	–	37.38	54.13
Cc1cc2[nH]c(C(=O)C(C)C)c(-c3ccccc3)c2cc1C(=O)O [Compound 45]	–	–	–	–	96.96	86.71
Cc1cc2[nH]c(C(=O)CC3CCCC3)c(-c3ccccc3)c2cc1C(=O)O [Compound 46]	–	–	–	–	39.06	38.6
Cc1cc2[nH]c(C(=O)C3CCCCC3)c(-c3ccccc3)c2cc1C(=O)O [Compound 47]	–	–	–	–	49.77	73.02
Cc1cc2[nH]c(C(=O)CC(C)(C)C)c(-c3ccccc3)c2cc1C(=O)O [Compound 48]	–	–	–	–	24.48	15.14
Cc1cc2[nH]c(C(=O)CCc3ccccc3)c(-c3ccccc3)c2cc1C(=O)O [Compound 49]	–	–	–	–	82.53	96.34
Cc1cc2[nH]c(C(=O)CCCc3ccccc3)c(-c3ccccc3)c2cc1C(=O)O [Compound 50]	–	–	–	–	41.75	72.47
